Patent publication US11884612B2, “Covalent peptide binders” (The Regents of the University of California, priority 2016, dated 2024)
Entries after “also recorded” stand apart in the source; their conditions may differ. Positions of bridges follow the written chain, without caps; N, C: chain ends. Non-standard residues stand in square brackets, D forms with d. Residues, ends and D or L forms follow the SMILES beside them. *: point of attachment. Benzoyl(3-SO2F) = O=C(c1cccc(S(=O)(=O)F)c1)*; R8 = C=CCCCCCC[C@@](C)(N)C(=O)O; S5 = C=CCCC[C@](C)(N)C(=O)O; Dap = NC[C@H](N)C(=O)O

Key:
p53-Mdm4 interaction = target: T1, p53-Mdm4 interaction (Homo sapiens, UniProt O15151); assay: ReBiL assay of peptide inhibition of p53-Mdm4 interaction in cell lysates; assay type: biochemical; conditions: Saos-2 cell lysates
T1 construct: expressed in transfected cells; host or cells: Saos-2 (p53-null) ReBiL reporter cells; lysate
T1 sequence (O15151 1-490): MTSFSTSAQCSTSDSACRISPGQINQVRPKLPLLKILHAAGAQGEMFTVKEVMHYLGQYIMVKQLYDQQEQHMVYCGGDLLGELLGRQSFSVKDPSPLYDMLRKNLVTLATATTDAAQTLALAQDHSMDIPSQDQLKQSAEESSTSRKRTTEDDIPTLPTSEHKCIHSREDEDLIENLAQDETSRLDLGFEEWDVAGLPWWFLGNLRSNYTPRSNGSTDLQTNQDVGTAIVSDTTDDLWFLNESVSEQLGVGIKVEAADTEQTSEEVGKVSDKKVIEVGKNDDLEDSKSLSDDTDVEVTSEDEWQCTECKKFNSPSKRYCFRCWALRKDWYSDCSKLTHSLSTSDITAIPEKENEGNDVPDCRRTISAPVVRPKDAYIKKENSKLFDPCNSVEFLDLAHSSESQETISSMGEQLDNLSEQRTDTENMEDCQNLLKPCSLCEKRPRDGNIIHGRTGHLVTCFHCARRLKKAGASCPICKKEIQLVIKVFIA
Excerpt: In ReBiL, luciferase is split and separately fused to Mdm2/Mdm4 and p53, and the expression cassette is integrated into a single chromosomal site in host cells (FIG. 3A). Inhibition of the interaction between p53 and Mdm2/Mdm4 results in a decrease in luciferase activity.

Brca1-Bard1 interaction = target: T2, Brca1-Bard1 interaction (Homo sapiens, UniProt P38398+Q99728); assay: ReBiL assay of peptide inhibition of Brca1-Bard1 interaction in cell lysates (binding selectivity); assay type: biochemical; conditions: cell lysates of Saos-2 cells
T2 construct: expressed in transfected cells; host or cells: Saos-2 ReBiL reporter cells; lysate
T2 sequence (P38398 whole entry): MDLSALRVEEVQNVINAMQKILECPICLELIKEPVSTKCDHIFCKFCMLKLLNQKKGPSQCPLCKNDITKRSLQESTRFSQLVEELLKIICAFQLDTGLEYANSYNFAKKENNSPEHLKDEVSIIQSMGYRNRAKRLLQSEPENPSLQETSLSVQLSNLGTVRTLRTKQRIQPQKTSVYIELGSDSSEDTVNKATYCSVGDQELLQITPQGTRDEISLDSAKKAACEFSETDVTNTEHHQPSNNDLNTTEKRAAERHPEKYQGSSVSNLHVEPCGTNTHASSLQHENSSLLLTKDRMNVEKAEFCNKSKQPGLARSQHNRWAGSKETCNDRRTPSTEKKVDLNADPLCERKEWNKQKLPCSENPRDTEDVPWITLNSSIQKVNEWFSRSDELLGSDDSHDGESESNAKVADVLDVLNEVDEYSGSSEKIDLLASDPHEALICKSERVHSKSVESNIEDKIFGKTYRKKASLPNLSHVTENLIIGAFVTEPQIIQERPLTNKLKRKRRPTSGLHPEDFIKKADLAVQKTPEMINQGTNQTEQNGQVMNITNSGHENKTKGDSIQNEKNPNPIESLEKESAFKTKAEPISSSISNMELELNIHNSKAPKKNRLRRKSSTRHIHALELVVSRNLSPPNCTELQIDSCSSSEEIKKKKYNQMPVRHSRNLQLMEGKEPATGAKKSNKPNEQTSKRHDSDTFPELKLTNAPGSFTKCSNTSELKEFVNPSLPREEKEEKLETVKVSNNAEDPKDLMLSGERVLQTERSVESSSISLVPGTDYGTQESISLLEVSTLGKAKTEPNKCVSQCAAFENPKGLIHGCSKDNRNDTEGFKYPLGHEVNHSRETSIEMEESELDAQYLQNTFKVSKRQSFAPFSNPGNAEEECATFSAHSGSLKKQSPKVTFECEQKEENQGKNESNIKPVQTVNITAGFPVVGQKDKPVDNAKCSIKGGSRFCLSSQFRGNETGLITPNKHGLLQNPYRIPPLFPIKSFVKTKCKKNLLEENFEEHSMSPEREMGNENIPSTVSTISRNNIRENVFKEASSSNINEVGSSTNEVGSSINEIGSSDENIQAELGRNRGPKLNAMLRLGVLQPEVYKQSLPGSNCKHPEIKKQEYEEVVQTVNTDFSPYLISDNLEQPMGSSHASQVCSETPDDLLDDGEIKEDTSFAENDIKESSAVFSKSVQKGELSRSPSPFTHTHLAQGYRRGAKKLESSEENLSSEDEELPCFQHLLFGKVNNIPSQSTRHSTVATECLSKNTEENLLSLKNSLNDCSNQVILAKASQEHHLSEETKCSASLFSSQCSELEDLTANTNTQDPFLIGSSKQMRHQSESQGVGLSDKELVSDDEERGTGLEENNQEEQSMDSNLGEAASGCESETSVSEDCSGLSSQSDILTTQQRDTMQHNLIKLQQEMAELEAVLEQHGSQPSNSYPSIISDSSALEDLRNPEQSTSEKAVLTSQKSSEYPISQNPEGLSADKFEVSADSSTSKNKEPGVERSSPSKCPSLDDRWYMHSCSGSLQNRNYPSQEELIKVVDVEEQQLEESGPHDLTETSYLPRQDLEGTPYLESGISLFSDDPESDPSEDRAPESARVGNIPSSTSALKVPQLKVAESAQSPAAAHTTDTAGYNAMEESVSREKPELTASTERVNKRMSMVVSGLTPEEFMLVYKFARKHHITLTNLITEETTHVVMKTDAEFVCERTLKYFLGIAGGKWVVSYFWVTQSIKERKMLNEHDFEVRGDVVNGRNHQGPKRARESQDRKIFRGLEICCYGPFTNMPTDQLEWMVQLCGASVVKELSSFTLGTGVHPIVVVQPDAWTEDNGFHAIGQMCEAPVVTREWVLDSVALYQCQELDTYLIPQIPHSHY
T2 sequence (Q99728 whole entry): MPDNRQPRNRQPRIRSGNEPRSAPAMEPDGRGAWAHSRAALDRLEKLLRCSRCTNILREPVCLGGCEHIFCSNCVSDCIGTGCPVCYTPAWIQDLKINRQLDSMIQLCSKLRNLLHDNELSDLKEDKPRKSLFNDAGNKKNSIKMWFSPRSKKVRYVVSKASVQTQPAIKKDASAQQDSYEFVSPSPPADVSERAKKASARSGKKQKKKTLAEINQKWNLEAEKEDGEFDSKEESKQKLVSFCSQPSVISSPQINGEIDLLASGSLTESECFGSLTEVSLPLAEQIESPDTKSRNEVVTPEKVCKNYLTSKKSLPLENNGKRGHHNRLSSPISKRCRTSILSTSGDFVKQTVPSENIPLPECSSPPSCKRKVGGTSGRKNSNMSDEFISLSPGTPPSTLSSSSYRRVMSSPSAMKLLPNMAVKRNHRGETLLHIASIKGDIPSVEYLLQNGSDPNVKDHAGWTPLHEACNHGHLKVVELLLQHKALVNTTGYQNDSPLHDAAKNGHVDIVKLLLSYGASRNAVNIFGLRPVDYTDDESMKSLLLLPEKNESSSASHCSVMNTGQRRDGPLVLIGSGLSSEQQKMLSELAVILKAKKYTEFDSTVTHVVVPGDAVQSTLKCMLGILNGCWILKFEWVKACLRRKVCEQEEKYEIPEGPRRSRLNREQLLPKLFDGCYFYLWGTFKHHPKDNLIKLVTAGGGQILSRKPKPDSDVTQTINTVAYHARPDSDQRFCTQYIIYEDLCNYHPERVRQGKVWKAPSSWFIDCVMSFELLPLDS
Experimental: To test the binding selectivity of peptides 2, 4 and 5, we then incubated the peptides with cell lysates of Saos-2 cells harboring ReBiL system expressing Brca1-Bard1 instead of p53-Mdm2/Mdmx.

His-tagged Mdm4 = assay: Covalent binding to purified Mdm4 (anti-His immunoblot band shift, ESI-MS)
Excerpt: FIG. 4. […] After separation by SDS-PAGE, an anti-His antibody was used to detect Mdm4.

p53 null Saos-2 cells = assay: Cell viability (p53-independent cytotoxicity), CELL TITER-GLO assay; conditions: 37° C., 8 h, 50, 25, 12.5 uM
Experimental: Error bars are s.e.m. (n=5) and normalized to the luminescence reading of DMSO treated cells.
Cell viability was measured on the p53-null Saos-2 cells by CELL TITER-GLO® assay per Promega's instructions. Peptides were incubated with the Saos-2 cells at 37° C. for 8 h.

CC(=O)N[C@@H](CCC(N)=O)C(=O)N[C@@H](CO)C(=O)N[C@@H](CCC(N)=O)C(=O)N[C@@H](CCC(N)=O)C(=O)N[C@H](C(=O)N[C@@H](Cc1ccccc1)C(=O)N[C@]1(C)CCCCCCC=CCCC[C@@](C)(C(=O)N[C@@H](CCC(N)=O)C(=O)N[C@@H](CC(N)=O)C(N)=O)NC(=O)[C@H](CC(C)C)NC(=O)[C@H](CC(C)C)NC(=O)[C@H](CCCNC(=N)N)NC(=O)[C@H](Cc2c[nH]c3ccccc23)NC(=O)[C@H](CNC(=O)c2cccc(S(=O)(=O)F)c2)NC(=O)[C@H](CC(N)=O)NC1=O)[C@@H](C)O [Peptide 4] (Ac-QSQQTF[R8]N[Dap](Benzoyl(3-SO2F))WRLL[S5]QN-NH2; staple 7-14 (inferred))
activity to Mdm4 relative to Mdm2 (p53-Mdm4 interaction): ten-fold higher
inhibition of Brca1-Bard1 interaction (Brca1-Bard1 interaction): did not inhibit
time until crosslinking ("sulfate click reaction") with Mdm4 was complete (His-tagged Mdm4; 37° C., PBS buffer pH 7.5): ≤ 10 min
shift of Mdm4 band to higher molecular weight (covalent binding), immunoblot (His-tagged Mdm4; Mdm4 1.5 μM, peptide 3 μM, PBS buffer pH 7.5, 37° C., 10, 20 and 60 min): shifted the Mdm4 band to a higher molecular weight; also recorded: shift of the band to a higher molecular weight
covalent complex formation with Mdm4 by ESI-MS (His-tagged Mdm4; incubated 60 min): confirmed the covalent complex formation
cell viability / cytotoxicity (p53 null Saos-2 cells): no significant cytotoxicity; also recorded: nontoxic
